Assay type in all cases: cell-based
One data set can be described thus: in vitro. The note with it: human. The source says:
(§1) FIG. 9A illustrates one embodiment of processing steps associated with the operation of the cell death analysis module 62. The first processing step of FIG. 9A is to obtain luminescence intensity (LI) values corresponding to defined nuclei of cells captured by the image capture device (block 130), as described above. Based upon these LI values, the minimum nuclear luminescence intensity values (“MNLI”) are obtained (block 132). The MNLI value for a nucleus is the lowest LI value measured for that nucleus, for example, the lowest gray value of the pixels within a specific defined nucleus. At this point, the cell death analysis module 62 may compare the MNLI values of particular cells to a range of predefined MNLI values indicative of viable cells (block 134). A value falling outside this range identifies the cell as being non-viable or dead, whereas a value falling within this range identifies the cell as being viable or alive. Alternatively, the cell death analysis module 62 may be carried out with populations of cells, as illustrated in FIG. 9B. In this instance, MNLI values for a plurality of defined nuclei are obtained (block 142) based upon their LI values (block 140) and the percentage of cells having MNLI values falling outside a specified range of MNLI values is calculated (block 144). This percentage is then compared with a predefined percentage range indicative of a viable cell population (block 146). Cell populations having percentages falling within the predefined range are reported as viable populations, whereas percentages falling outside the predefined range are reported as non-viable populations.
(§2) In one embodiment, the range of MNLI values indicative of viable cells may be calculated from control cell MNLI values using standard statistical analyses. For example, the MNLI values that bound a specified percentage or confidence interval, for example, 80%, 90%, 95% or a higher percentage, of the control cell MNLI values may be used as boundaries to defined the range of MNLI values indicative of viable cells. As this range is only exemplary, it will be appreciated that higher or lower percentages may be utilized. As a specified example, the MNLI values that bound 95% of the MNLI values using a standard statistical analysis yields good results. […] Once applied, the percentage of test cells falling within (or without) the range can be calculated to assess whether the cell population is viable or non-viable. […]
(§3) The coordinates of these DMSO-treated cells form a tight band of MNLI values. Based on a statistical analysis, 95% of the MNLI values measured from this population fall within a range of 481 to 560 intensity units (i.e., within a range of […] from the statistical mean MNLI value). […]

For data set [1], the system named is A549 cells. Nature of the data set: in vitro. The note with it: FIG. 10.
Description: as §1, §2, §3

The subject of data set [2] is A549 cells. Nature of the data set: cell proliferation assay (nuclei count, cell proliferation analysis module). The note with it: Homo sapiens; taxol-treated A549 cells, nuclei count vs concentration, FIG. 5. From the text:
The cell proliferation analysis module 58 provides information about the ability of cells to divide and proliferate. In general, the cell proliferation analysis module provides such information by counting the number of objects (typically nuclei) identified by the object identification module 57. In one embodiment, the cell proliferation analysis module […] can be used to screen for and/or identify candidate compounds having anti-proliferative activity. According to this embodiment, the proliferation of cells treated with or exposed to a candidate compound of interest can be monitored with the cell proliferation analysis module 58 of the invention. […] In a specific embodiment, samples of equal volume are collected from a cell culture as a function of time and analyzed for proliferation with the cell proliferation analysis module 58 of the invention. […]
In another specific embodiment, adherent cells may be treated with different concentrations of test compound, permitted to incubate for a specified period time and then analyzed with the cell proliferation analysis module 58. Plotting the average number of cells in each sample well as a function of compound concentration provides a curve from which the anti-proliferative IC50 (or EC50) can be determined. […]

Molecules are shown by their SMILES.

The compound `COc1cc([C@@H]2c3cc4c(cc3[C@@H](O[C@@H]3O[C@@H]5CO[C@@H](C)O[C@H]5[C@H](O)[C@H]3O)[C@H]3COC(=O)[C@H]23)OCO4)cc(OC)c1O` [etoposide] showed a viability in “in vitro” of 99.5%. In addition, the “induction of cell death (MNLI analysis and visual inspection of images)” value in the data set on A549 cells [1] was “do not”.
As to `CC(=O)O[C@H]1C(=O)[C@@]2(C)[C@H]([C@H](OC(=O)c3ccccc3)[C@]3(O)C[C@H](OC(=O)[C@H](O)[C@@H](NC(=O)c4ccccc4)c4ccccc4)C(C)=C1C3(C)C)[C@]1(OC(C)=O)CO[C@@H]1C[C@@H]2O` [taxol], in “in vitro”, the viability was 83%. Besides, in the data set on A549 cells [1], the “induction of cell death (MNLI analysis and visual inspection of images)” value is listed as “induce cell death”. Also, in the data set with A549 cells [2], it took 2.2 nM to reach a half-maximal effect (EC50).

The values are drawn from patent US9702865B2, “System and method for high-content oncology assay” (RIGEL PHARMACEUTICALS, INC., priority 2002, dated 2017).
